# Experimental data: US20150258107A1, “METHODS AND COMPOSITIONS FOR TREATING DEPRESSION” (DemeRx, Inc., priority 2014, published 2015)
# Assays:
# [1] = system: cynomolgus monkey; assay: Single dose toxicity in cynomolgus monkeys; format: in vivo; conditions: oral gavage, doses up to and including 160 mg/kg
# Protocol: The objective of the study was to determine the toxicity and toxicokinetic profile of noribogaine following oral (gavage) administration to the cynomolgus monkey. Each dose was followed by a 7 day washout period. Dosing was staggered by 45 minutes. On study day 15, one animal was administered 80 mg/kg and the other animal was administered 160 mg/kg. The test article was administered as follows in Table 1:
# Parameters monitored on the study included: mortality, clinical signs and body weights. Blood samples were collected for TK evaluation. […] The single dose maximum tolerated dose (MTD) was determined to be greater than 160 mg/kg based on the parameters monitored during the study.
# [2] = Pharmacokinetics in opioid-dependent patients (Phase IB study); format: in vivo, human; conditions: 60, 120, 180 mg
# Protocol: Three cohorts of nine (9) subjects (6 administered noribogaine and 3 administered placebo in each cohort) were evaluated for tolerability, pharmacokinetics, and efficacy. Cohort 1 received a single dose of 60 mg noribogaine or placebo. Cohort 2 received a single dose of 120 mg noribogaine or placebo. Cohort 3 received a single dose of 180 mg noribogaine or placebo. […] Headaches were frequent in the placebo and 60 mg noribogaine treatment groups, but were attenuated in the 120 mg and 180 mg dose groups.
smiles,measurement,setting,value
CC[C@H]1CC2C[C@H]3c4[nH]c5ccc(O)cc5c4CCN(C2)C13 [noribogaine],Mortality or treatment related clinical signs,[1],No mortality or treatment related clinical signs were noted
same,Dose dependence of maximum serum concentration (Cmax),[2],increased in a dose-dependent manner
